Laboratory results reported in patent US20020137929A1, “1 - (3-heterocyclylphenyl) isothiourea, -isourea, -guanidine and -amidine herbicidal agents” (Intellectual Property Department, BASF Aktiengesellschaft, priority 1998, published 2002).

Legend:
[1] = tested on: GLXMAW (Soybean, Williams); assay: Preemergence herbicidal evaluation; assay type: in vivo, Glycine max, (L.) Merr. cv Williams; conditions: rated 4-5 weeks after treatment
Outline: (§1)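 Preemergence soil application of compound, sprayed in aqueous acetone at rates equivalent to about 0.0156 to 0.500 kg per hectare onto freshly sown cups. Plant response was judged by eye on a 0-9 scale four to five weeks later.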

ECHCG (Barnyardgrass) = assay: Postemergence herbicidal evaluation; assay type: in vivo, Echinochloa crus-galli; conditions: for ECHCG herbicidal rating: postemergence
Outline: (§2)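 Compound is applied as a foliar spray to seedlings about two weeks old, formulated in equal parts acetone and water with 0.5% TWEEN 20 and delivered at 40 psi to give about 0.0156–0.500 kg per hectare. Injury is rated visually 0–9 after four to five weeks.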

[2] = tested on: CHEAL (Lambsquarters, Common); assay: Postemergence herbicidal evaluation; assay type: in vivo, Chenopodium album; conditions: for CHEAL herbicidal rating: postemergence
Outline: as §2

GALAP (Galium) = assay: Preemergence herbicidal evaluation; assay type: in vivo, Galium aparine; conditions: rated 4-5 weeks after treatment
Outline: as §1

CASOB (Sicklepod) = assay: Postemergence herbicidal evaluation; assay type: in vivo, Cassia obtusifolia; conditions: for CASOB herbicidal rating: postemergence
Outline: as §2

CYPIR (Rice Flatsedge) = assay: Preemergence weed control under flooded paddy conditions; assay type: in vivo, Cyperus iria; conditions: rated 3-4 weeks after treatment
Outline: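 Seeds or propagules sown in silt loam kept flooded 1.5-3 cm; compounds in 50/50 acetone/water pipetted into flood water at about 0.0313 to 0.500 kg/ha. Greenhouse; visual 0-9 rating versus untreated control 3-4 weeks after treatment.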

ORYSAT (Rice, Tebonnet) [3] = assay: Postemergence herbicidal evaluation; assay type: in vivo, Oryza sativa, (L.) Tebonnet; conditions: for ORYSAT herbicidal rating: postemergence
Outline: as §2

CYPSE (Flatsedge) = assay: Postemergence weed control under flooded paddy conditions; assay type: in vivo, Cyperus serotinus; conditions: postemergence weeds, 3-4 weeks after treatment
Outline: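 Containers holding 3–5 cm weeds and rice at 1.5–2.5 leaves are flooded to 1.5–3 cm above soil. Compound in 50/50 v/v aqueous/acetone is then added directly to the water, about 0.0313–0.500 kg/ha. Plants are kept in the greenhouse and rated 0–9 visually at 3–4 weeks.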

[4] = tested on: TRZAWR (Wheat, Winter, cv Riband); assay: Preemergence herbicidal evaluation; assay type: in vivo, Triticum aestivum; conditions: rated 4-5 weeks after treatment
Outline: as §1

SETVI (Foxtail, Green) = assay: Preemergence herbicidal evaluation; assay type: in vivo, Setaria viridis; conditions: rated 4-5 weeks after treatment
Outline: as §1

ZEAMX (Corn, Field) = assay: Preemergence herbicidal evaluation; assay type: in vivo, Zea mays; conditions: rated 4-5 weeks after treatment
Outline: as §1

ORYSAT (Rice, Tebonnet) [5] = assay: Preemergence herbicidal evaluation; assay type: in vivo, Oryza sativa, (L.) Tebonnet; conditions: rated 4-5 weeks after treatment
Outline: as §1

[6] = tested on: SAGPY (Arrowhead (Pygmaea)); assay: Preemergence weed control under flooded paddy conditions; assay type: in vivo, Sagittaria pygmaea; conditions: rated 3-4 weeks after treatment
Outline: (§3)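 Seeds or propagules sown in top 0.5 cm of silt loam soil, flooded 1.5 to 3 cm above surface throughout. Compound in 50/50 v/v aqueous/acetone pipetted into flood water at about 0.0313 to 0.500 kg/ha. Visual 0-9 rating versus control after three to four weeks in greenhouse.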

MOOVA (Monochoria) = assay: as above; assay type: in vivo, Monochoria vaginalis; conditions: rated 3-4 weeks after treatment
Outline: as §3

Compound: CN(C)N1C(=O)CSC1=Nc1cc(-n2c(=O)cc(C(F)(F)F)n(C)c2=O)c(F)cc1Cl [Compound 23, 3-{4-Chloro-5-{[3-(dimethylamino)-4-oxo-2-thiazolidinylidine]amino}-2-fluorophenyl}-1-methyl-6-(trifluoromethyl)-2,4(1H,3H)-pyrimidinedione]
- GLXMAW preemergence herbicidal rating ([1]; rate 0.0156 kg/ha): 0.0
- GLXMAW preemergence herbicidal rating ([1]; rate 0.0313 kg/ha): 0.0
- GLXMAW preemergence herbicidal rating ([1]; rate 0.0625 kg/ha): 2.0
- GLXMAW preemergence herbicidal rating ([1]; rate 0.1250 kg/ha): 6.0
- GLXMAW preemergence herbicidal rating ([1]; rate 0.2500 kg/ha): 7.0
- ECHCG herbicidal rating (ECHCG (Barnyardgrass); rate 0.0158 kg/ha): 0.0
- ECHCG herbicidal rating (ECHCG (Barnyardgrass); rate 0.0315 kg/ha): 2.0
- ECHCG herbicidal rating (ECHCG (Barnyardgrass); rate 0.0630 kg/ha): 2.0
- CHEAL herbicidal rating ([2]; rate 0.0158 kg/ha): 2.0
- CHEAL herbicidal rating ([2]; rate 0.0315 kg/ha): 7.0
- CHEAL herbicidal rating ([2]; rate 0.0630 kg/ha): 9.0
- GALAP preemergence herbicidal rating (GALAP (Galium); rate 0.0156 kg/ha): 0.0
- GALAP preemergence herbicidal rating (GALAP (Galium); rate 0.0313 kg/ha): 1.0
- GALAP preemergence herbicidal rating (GALAP (Galium); rate 0.0625 kg/ha): 1.0
- GALAP preemergence herbicidal rating (GALAP (Galium); rate 0.1250 kg/ha): 0.0
- GALAP preemergence herbicidal rating (GALAP (Galium); rate 0.2500 kg/ha): 2.0
- CASOB herbicidal rating (CASOB (Sicklepod); rate 0.0158 kg/ha): 0.0
- CASOB herbicidal rating (CASOB (Sicklepod); rate 0.0315 kg/ha): 1.0
- CASOB herbicidal rating (CASOB (Sicklepod); rate 0.0630 kg/ha): 3.0
- Herbicidal rating CYPIR (CYPIR (Rice Flatsedge); 0.1160 kg/ha): 0.0
- Herbicidal rating CYPIR (CYPIR (Rice Flatsedge); 0.2310 kg/ha): 0.0
- Herbicidal rating CYPIR (CYPIR (Rice Flatsedge); 0.4630 kg/ha): 0.0
- ORYSAT herbicidal rating (ORYSAT (Rice, Tebonnet) [3]; rate 0.0158 kg/ha): 2.0
- ORYSAT herbicidal rating (ORYSAT (Rice, Tebonnet) [3]; rate 0.0315 kg/ha): 2.5
- ORYSAT herbicidal rating (ORYSAT (Rice, Tebonnet) [3]; rate 0.0630 kg/ha): 4.5
- Herbicidal rating CYPSE (CYPSE (Flatsedge); rate 0.1160 kg/ha): 0.0
- Herbicidal rating CYPSE (CYPSE (Flatsedge); rate 0.2310 kg/ha): 0.0
- Herbicidal rating CYPSE (CYPSE (Flatsedge); rate 0.4630 kg/ha): 0.0
- TRZAWR preemergence herbicidal rating ([4]; rate 0.0156 kg/ha): 0.0
- TRZAWR preemergence herbicidal rating ([4]; rate 0.0313 kg/ha): 0.0
- TRZAWR preemergence herbicidal rating ([4]; rate 0.0625 kg/ha): 1.0
- TRZAWR preemergence herbicidal rating ([4]; rate 0.1250 kg/ha): 5.0
- TRZAWR preemergence herbicidal rating ([4]; rate 0.2500 kg/ha): 7.0
- SETVI preemergence herbicidal rating (SETVI (Foxtail, Green); rate 0.0156 kg/ha): 1.0
- SETVI preemergence herbicidal rating (SETVI (Foxtail, Green); rate 0.0313 kg/ha): 1.0
- SETVI preemergence herbicidal rating (SETVI (Foxtail, Green); rate 0.0625 kg/ha): 5.0
- SETVI preemergence herbicidal rating (SETVI (Foxtail, Green); rate 0.1250 kg/ha): 5.0
- SETVI preemergence herbicidal rating (SETVI (Foxtail, Green); rate 0.2500 kg/ha): 6.0
- ZEAMX preemergence herbicidal rating (ZEAMX (Corn, Field); rate 0.0156 kg/ha): 0.0
- ZEAMX preemergence herbicidal rating (ZEAMX (Corn, Field); rate 0.0313 kg/ha): 1.0
- ZEAMX preemergence herbicidal rating (ZEAMX (Corn, Field); rate 0.0625 kg/ha): 2.0
- ZEAMX preemergence herbicidal rating (ZEAMX (Corn, Field); rate 0.1250 kg/ha): 5.0
- ZEAMX preemergence herbicidal rating (ZEAMX (Corn, Field); rate 0.2500 kg/ha): 7.0
- ORYSAT preemergence herbicidal rating (ORYSAT (Rice, Tebonnet) [5]; rate 0.0156 kg/ha): 0.0
- ORYSAT preemergence herbicidal rating (ORYSAT (Rice, Tebonnet) [5]; rate 0.0313 kg/ha): 0.0
- ORYSAT preemergence herbicidal rating (ORYSAT (Rice, Tebonnet) [5]; rate 0.0625 kg/ha): 1.0
- ORYSAT preemergence herbicidal rating (ORYSAT (Rice, Tebonnet) [5]; rate 0.1250 kg/ha): 1.0
- ORYSAT preemergence herbicidal rating (ORYSAT (Rice, Tebonnet) [5]; rate 0.2500 kg/ha): 7.0
- Herbicidal rating SAGPY ([6]; 0.1160 kg/ha): 0.0
- Herbicidal rating SAGPY ([6]; 0.2310 kg/ha): 0.0
- Herbicidal rating SAGPY ([6]; 0.4630 kg/ha): 3.0
- Herbicidal rating MOOVA (MOOVA (Monochoria); 0.1160 kg/ha): 9.0
- Herbicidal rating MOOVA (MOOVA (Monochoria); 0.2310 kg/ha): 9.0
- Herbicidal rating MOOVA (MOOVA (Monochoria); 0.4630 kg/ha): 9.0

Compound: COC(=O)CCCN1C(=O)CSC1=Nc1cc(-n2c(=O)cc(C(F)(F)F)n(C)c2=O)c(F)cc1Cl [Compound 29, Methyl 2-{{2-chloro-5-[3,6-dihydro-3-methyl-2,6-dioxo-4-(trifluoromethyl)-1(2H)-pyrimidinyl]-4-fluorophenyl}imino}-4-oxo-3-thiazolidinebutyrate]
- Preemergence herbicidal rating GLXMAW ([1]; rate 0.0625 kg/ha): 0.0
- Preemergence herbicidal rating GLXMAW ([1]; rate 0.1250 kg/ha): 0.0
- Preemergence herbicidal rating GLXMAW ([1]; rate 0.2500 kg/ha): 2.0
- Postemergence herbicidal rating ECHCG (ECHCG (Barnyardgrass); Rate 0.0158 kg/ha): 0.0
- Postemergence herbicidal rating ECHCG (ECHCG (Barnyardgrass); Rate 0.0315 kg/ha): 1.0
- Postemergence herbicidal rating ECHCG (ECHCG (Barnyardgrass); Rate 0.0630 kg/ha): 4.0
- Postemergence herbicidal rating CHEAL ([2]; Rate 0.0158 kg/ha): 1.0
- Postemergence herbicidal rating CHEAL ([2]; Rate 0.0315 kg/ha): 1.0
- Postemergence herbicidal rating CHEAL ([2]; Rate 0.0630 kg/ha): 5.0
- Preemergence herbicidal rating GALAP (GALAP (Galium); rate 0.0625 kg/ha): 0.0
- Preemergence herbicidal rating GALAP (GALAP (Galium); rate 0.1250 kg/ha): 0.0
- Preemergence herbicidal rating GALAP (GALAP (Galium); rate 0.2500 kg/ha): 0.0
- Postemergence herbicidal rating CASOB (CASOB (Sicklepod); Rate 0.0158 kg/ha): 0.0
- Postemergence herbicidal rating CASOB (CASOB (Sicklepod); Rate 0.0315 kg/ha): 0.0
- Postemergence herbicidal rating CASOB (CASOB (Sicklepod); Rate 0.0630 kg/ha): 0.0
- Herbicidal rating CYPIR (CYPIR (Rice Flatsedge); 0.0313 kg/ha): 0.0
- Herbicidal rating CYPIR (CYPIR (Rice Flatsedge); 0.0625 kg/ha): 0.0
- Herbicidal rating CYPIR (CYPIR (Rice Flatsedge); 0.1250 kg/ha): 0.0
- Herbicidal rating CYPIR (CYPIR (Rice Flatsedge); 0.2500 kg/ha): 0.0
- Postemergence herbicidal rating ORYSAT (ORYSAT (Rice, Tebonnet) [3]; Rate 0.0158 kg/ha): 1.0
- Postemergence herbicidal rating ORYSAT (ORYSAT (Rice, Tebonnet) [3]; Rate 0.0315 kg/ha): 3.0
- Postemergence herbicidal rating ORYSAT (ORYSAT (Rice, Tebonnet) [3]; Rate 0.0630 kg/ha): 3.5
- Herbicidal rating CYPSE (CYPSE (Flatsedge); rate 0.0313 kg/ha): 0.0
- Herbicidal rating CYPSE (CYPSE (Flatsedge); rate 0.0625 kg/ha): 0.0
- Herbicidal rating CYPSE (CYPSE (Flatsedge); rate 0.1250 kg/ha): 0.0
- Herbicidal rating CYPSE (CYPSE (Flatsedge); rate 0.2500 kg/ha): 0.0
- Preemergence herbicidal rating TRZAWR ([4]; rate 0.0625 kg/ha): 0.0
- Preemergence herbicidal rating TRZAWR ([4]; rate 0.1250 kg/ha): 0.0
- Preemergence herbicidal rating TRZAWR ([4]; rate 0.2500 kg/ha): 4.0
- Preemergence herbicidal rating SETVI (SETVI (Foxtail, Green); rate 0.0625 kg/ha): 0.0
- Preemergence herbicidal rating SETVI (SETVI (Foxtail, Green); rate 0.1250 kg/ha): 0.0
- Preemergence herbicidal rating SETVI (SETVI (Foxtail, Green); rate 0.2500 kg/ha): 9.0
- Preemergence herbicidal rating ZEAMX (ZEAMX (Corn, Field); rate 0.0625 kg/ha): 0.0
- Preemergence herbicidal rating ZEAMX (ZEAMX (Corn, Field); rate 0.1250 kg/ha): 0.0
- Preemergence herbicidal rating ZEAMX (ZEAMX (Corn, Field); rate 0.2500 kg/ha): 6.0
- Preemergence herbicidal rating ORYSAT (ORYSAT (Rice, Tebonnet) [5]; rate 0.0625 kg/ha): 0.0
- Preemergence herbicidal rating ORYSAT (ORYSAT (Rice, Tebonnet) [5]; rate 0.1250 kg/ha): 0.0
- Preemergence herbicidal rating ORYSAT (ORYSAT (Rice, Tebonnet) [5]; rate 0.2500 kg/ha): 3.0
- Herbicidal rating SAGPY ([6]; 0.0313 kg/ha): 0.0
- Herbicidal rating SAGPY ([6]; 0.0625 kg/ha): 0.0
- Herbicidal rating SAGPY ([6]; 0.1250 kg/ha): 0.0
- Herbicidal rating SAGPY ([6]; 0.2500 kg/ha): 0.0
- Herbicidal rating MOOVA (MOOVA (Monochoria); 0.0313 kg/ha): 0.0
- Herbicidal rating MOOVA (MOOVA (Monochoria); 0.0625 kg/ha): 0.0
- Herbicidal rating MOOVA (MOOVA (Monochoria); 0.1250 kg/ha): 0.0
- Herbicidal rating MOOVA (MOOVA (Monochoria); 0.2500 kg/ha): 0.0
